Results: US20080031968A1, “Methods for increasing cellular energy expenditure” (priority 2005, published 2008)

Experiments:
[1] = tested on: mouse SREBP-1c promoter; assay: SREBP-1c promoter luciferase reporter assay in McA-RH7777 cells; type: cell-based; conditions: McA-RH7777 rat hepatoma cells, LXRα transfection and/or LXR and RXR agonists
Protocol: The LXR response elements in pSREBP-1c324-Luc were mutated for promoter analysis using the Quick Change Site-Directed Mutagenesis Kit (Stratagene, La Jolla, Calif., USA).
The rat hepatoma cell line McA-RH7777 was obtained from ATCC (Manassas, Va., USA). […] Transfections were performed in 96-well plates using Lipofectamine 2000 (Invitrogen, Cergy Pontoise, France). Each well contained 64 ng luciferase reporter and 4 ng of β-galactosidase expression plasmid. We transfected 16 ng RXRα, 16 ng LXRα, 16 ng LRH-1, 32 ng SHP expression plasmids, or the corresponding empty expression vectors. After 6 hours of incubation with the DNA-lipofectamine complexes, the transfection medium was exchanged for medium with or without the indicated ligands. Ligands for LXR and RXR were dissolved in ethanol or DMSO and added to the cells in DMEM supplemented with 10% lipoprotein-deficient serum. To suppress SREBP-1c activation by processing, leading to feed-forward induction of SREBP-1c expression, the medium used for the SREBP-1c promoter study was also supplemented with 10 μg/ml cholesterol and 1 μg/ml 25-hydroxycholesterol. Luciferase measurements were normalized to β-galactosidase activity.

[2] = tested on: KK-Ay mice; assay: In vivo VLDL TG production (Tyloxapol) in KK-Ay mice; set-up: species or system mouse; conditions: 1 week of CA feeding, chow and high-fat diet
[3] = tested on: humans; conditions: cited from earlier work
[4] = tested on: KK-Ay and C57BL/6J mice; assay: Tissue mRNA levels by quantitative RT-PCR after CA supplementation; type: in vivo, mouse
Protocol: (§1) Male C57BL/6J, KK-Ay, and ob/ob (C57BL/6J background) mice, 6-10 weeks of age, were obtained from Elevage Janvier (Le Genest St. Isle, France), CLEA Japan Inc. (Tokyo, Japan), and The Jackson Laboratory (Bar Harbor, Me., USA), respectively. All mice were maintained in a temperature-controlled (23° C.) facility with a 12-hour light/dark cycle and were given free access to food and water. The study protocols were approved by the institutional review boards. The body weight and food intake were measured every second day. The control and high-fat diet was obtained from UAR (Villemoisson sur Orge, France). […] The mice were fasted 4 hours before harvesting blood for subsequent lipid measurements, and tissues for RNA isolation, lipid measurements, and histology.
Total RNA was extracted from frozen tissue samples or cells using the RNeasy kit (QIAGEN, Courtaboeuf, France). cDNA was synthesized from total RNA with the SuperScript First-Strand Synthesis System (Invitrogen) and random hexamer primers. The real-time PCR measurement of individual cDNAs was performed using SYBR green dye to measure duplex DNA formation with the LightCycler System (Roche Diagnostics, Meylan, France). The sequences of the primer sets used are available online at http://www-igbmc.ustrasbg.fr/Departments/Dep_V/Dep_VA/Publi/Paper.html.

[5] = tested on: SHP+/+ and SHP-/- mice; assay: FXR agonists in SHP+/+ and SHP-/- mice; type: in vivo, mouse; conditions: for hepatic expression of SREBP-1c, ME, CYP7A1 and ANGPTL3: 1-day treatment
Protocol: as §1

[6] = tested on: KK-Ay mice; assay: CA in KK-Ay mice, body weight, OGTT and IPITT; type: in vivo, mouse
Protocol: Male C57BL/6J and KK-Ay mice, 6-7 weeks of age, were obtained from Charles River Laboratories France (l'Arbresle, France) and CLEA Japan Inc. (Tokyo, Japan), respectively. […] All mice were maintained in a temperature-controlled (23° C.) facility with a 12 h light/dark cycle and were given free access to food and water. The control and high-fat diet was obtained from UAR (Villemoison surOrge, France). […] GW4064 was suspended in peanut oil and mixed with the high fat diet at a concentration of 180 mg per kg of food. […] The mice were fasted 4 h before harvesting blood for subsequent blood measurements, and tissues for RNA isolation, lipid measurements and histology. Oxygen consumption was measured using the Oxymax apparatus (Columbus Instruments, Columbus, Ohio).
An OGTT was performed in animals that were fasted overnight. Glucose was administered by gavage at a dose of 2 g/kg. An IPITT was done in 4 h fasted animals. Insulin was injected at a dose of 0.75 U/kg. Glucose quantification was done with the Maxi Kit Glucometer 4 (Bayer Diagnostic, Puteaux, France) or Glucose RTU (bioMérieux Inc., Marcy l'Etoile, France). Plasma insulin concentrations were measured using ELISA (Cristal Chem Inc., Downers Grove, Ill.). Nonesterified fatty acids, triglycerides, ketone bodies, BA and total cholesterol were determined by enzymatic assays (Roche, Mannheim, Germany). cAMP was measured using the cAMP-Screen system (Applied Biosystems, Bedford, Mass.).

[7] = KK-Ay and C57BL/6J mice, 1 and 7 days CA in chow
[8] = KK-Ay mice, CA added to normal chow diet

**Q.** For `C[C@H](CCC(=O)O)[C@H]1CC[C@H]2[C@@H]3[C@H](O)C[C@@H]4C[C@H](O)CC[C@]4(C)[C@H]3C[C@H](O)[C@]12C` [CA, cholic acid], which “increase of SREBP-1c promoter activity” value [1] is on record?
**A.** attenuated

**Q.** What about the “liver VLDL production” value [2] of the same molecule?
**A.** significantly decreased

**Q.** And the hepatotoxicity [3]?
**A.** significant hepatotoxicity

**Q.** And the “hepatic expression of MCAD and LCAD” value ([4]; C57BL/6J mice, 1 and 7 days CA)?
**A.** significantly decreased

**Q.** What about the “expression of lipogenic genes in white adipose tissue” value ([4]; CA treatment) of the same molecule?
**A.** none of the lipogenic genes were lowered

**Q.** What about the “hepatic expression of SHP” value ([4]; CA treatment) of the same molecule?
**A.** robust induction

**Q.** What about the “hepatic expression of AceCS, ME and SCD-1” value [4, 7] of the same molecule?
**A.** significantly reduced

**Q.** And the “hepatic expression of LXRA, LRH-1, FXR and SREBP-2” value [4, 7]?
**A.** No major changes

**Q.** And the “hepatic expression of CPT-I, MCAD and LCAD” value ([4]; KK-Ay mice, CA)?
**A.** no change

**Q.** And the “serum TGs” value ([5]; SHP+/+ mice, 0, 3 and 7 days)?
**A.** significantly lowered

**Q.** And the “hepatic expression of SREBP-1c, ME, CYP7A1 and ANGPTL3” value ([5]; SHP+/+ mice)?
**A.** significantly reduced

**Q.** What about the “decrease in serum TGs” value ([5]; SHP-/- mice) of the same molecule?
**A.** completely abolished

**Q.** And the “hepatic expression of SREBP-1c, ME, CYP7A1 and ANGPTL3” value ([5]; SHP-/- mice)?
**A.** no decrease

**Q.** And the body weight [6, 8]?
**A.** decreased body weight

**Q.** And the “metabolic control (oral glucose tolerance test, intraperitoneal insulin tolerance test)” value [6, 8]?
**A.** improved metabolic control

**Q.** And the insulin sensitivity ([6]; KK-Ay mouse)?
**A.** improve insulin sensitivity
